Data reported in US20220040179A1, “USE OF CDK8/19 INHIBITORS FOR TREATMENT OF ESTABLISHED COLON CANCER HEPATIC METASTASIS” (University of South Carolina, priority 2017, published 2022).

Key:
CT26 cells [1] = assay: splenic injection model, CT26 cells: spleen (primary tumor) and liver (metastatic tumor) weights; format: in vivo, mouse; settings: 40 mg/kg daily i.p., 16 days, BALB/c mice
Method: To compare the effects of CDK8/19 inhibition on primary and metastatic tumor growth, we used a splenic injection model (Lafreniere and Rosenberg, 1986; Zhang et al., 2009), where tumor cells are injected in the spleen, from where they metastasize into the liver. In the study shown in FIG. 4, 2×10^5 CT26 cells were injected into the spleens of 8 weeks old female BALB/c mice, and mice were treated by daily i.p. injection of Senexin B dichloride (40 mg/kg) in 10 mM citrate buffer, pH6, 150 mM NaCl or with vehicle control (n=9). 1 6 days later, mice were sacrificed and the weights of tumor-containing spleens (primary tumor) and livers (metastatic tumor) were measured.
Mice were sacrificed 16 days after tumor cell inoculation into the spleen and spleens and livers were weighed.

[2] = system: human HCTl 16 colon cancer cells; assay: splenic injection model, human HCT116 cells in athymic nude mice: liver weights; format: in vivo; settings: 50 mg/kg by gavage b.i.d. in CD vehicle, 7 weeks after inoculation
Method: The splenic injection model was used to test the effect of Senexin B on hepatic metastasis of human HCTl 16 colon cancer cells, which are […] to small-molecule CDK8/19 inhibitors (Koehler et al., 2016; Pelish et al., 2015; Porter et al., 2012). 1×10^6 HCTl 16 cells were injected into the spleens of athymic nude (nu/nu) mice (JAX #002019) mice (female, 8 weeks old), and spleens were removed 1 min later. Mice were treated with Senexin B dimaleate (50 mg/kg by gavage in CD vehicle, b.i.d.) or vehicle control (n=10). 7 weeks after tumor cell inoculation, mice were sacrificed and livers with tumor metastases (FIG. 8A) were collected.

CT26 tumors = assay: primary CT26 tumors implanted subcutaneously in BALB/c mice; format: in vivo, mouse; settings: unmodified CT26 cells, female BALB/c mice; 50 mg/kg by gavage b.i.d. in CD vehicle vs vehicle
Method: We further investigated the effects of CDK8/19 inhibition or knockdown on the growth of primary CT26 tumors implanted subcutaneously (s.c.), at I xl 0^6 cells, in 8 weeks-old female BALB/c mice (n=I0). FIG. 3A compares the dynamics of tumor growth and final tumor weights for CT26 cells transduced with insert-free pLK0.1 (vector control) or shCDK8-1. […] FIG. 3B compares s.c. tumor growth of unmodified CT26 cells in mice treated with Senexin B dimaleate, administered by gavage at 50 mg/kg doses (weight doses calculated for Senexin B dimaleate rather than free Senexin B) in 6.25% 2-Hydroxypropyl-cyclodextrin, I % Dextrose buffer (CD vehicle), b.i.d. or with the vehicle control.

CT26 cells [3] = assay: splenic injection model, CT26 cells: timing of drug administration, liver weights two weeks after inoculation; format: in vivo, mouse; settings: 50 mg/kg gavage b.i.d.
Method: To determine if the anti-metastatic effects of CDK8/19 inhibition observed in the splenic injection model were due to the prevention of the initial establishment of hepatic metastases or growth inhibition of already-established metastases, we asked whether Senexin B can inhibit metastatic growth in the liver when the drug is administered after the metastases have been established. […] We compared the effects of Senexin B dimaleate on hepatic metastasis, when the drug was administered by gavage at 50 mg/kg doses in CD vehicle, b.i.d. two days prior to splenic inoculation, during the first week after inoculation, during the second week after inoculation, or over the entire two-week period following splenic inoculation of CT26 cells.

[4] = toxicity and body weight in mice receiving Senexin B diet; format: in vivo; settings: Senexin B diet relative to control diet
Method: (§1) We have analyzed the survival of mice after splenic injection of 2×10^5 CT26 cells into 8 week old female BALB/c mice, followed by removal of the spleen 1 minute after injection. Mice were sacrificed when paralysis, lack of movement or paleness (due to abdominal hemorrhage) occurred. […] To establish serum drug concentrations associated with therapeutic efficacy in this model, we conducted a similar survival study where Senexin B dimaleate was administered by mixing the drug into mouse food, which provides for sustained drug delivery over time. Senexin B was mixed into food at two concentrations differing approximately 4-fold and designated low-dose and high-dose. Serum samples were collected from treated mice and Senexin B in the serum was measured by a LC/MS/MS assay.

CT26 cells [5] = assay: survival of mice after splenic injection of CT26 cells followed by removal of the spleen; format: in vivo, mouse
Method: as §1

[6] = Senexin B serum concentration by LC/MS/MS in mice on medicated diet; format: in vivo, mouse
Method: as §1

CT26 colon cancer cells = assay: in vitro growth of CT26 cells; format: cell-based, murine; settings: 1 uM, 5-day assay
Description: To investigate the role of CDK8/19 in colon cancer growth and metastasis, we used murine CT26 colon cancer cell line, derived from a BALB/c mouse following chemical carcinogenesis (Griswold and Corbett, 1975). Cells were propagated in RPMI1640 medium with 10% Fetal Bovine Serum.

In the case of `CN1CCN(C(=O)c2ccc3cc(CCNc4ncnc5ccc(C#N)cc45)ccc3c2)CC1.Cl.Cl` [Senexin B dichloride], the “metastatic tumor growth in the liver (liver weight, tumor area)” value (CT26 cells [1]) is reported as “strongly inhibited metastatic tumor growth in the liver” and the “primary tumor growth in the spleen (spleen weight)” value (CT26 cells [1]) is reported as “no effect on the primary tumor growth in the spleen”.

For `CN1CCN(C(=O)c2ccc3cc(CCNc4ncnc5ccc(C#N)cc45)ccc3c2)CC1.O=C(O)/C=C\C(=O)O.O=C(O)/C=C\C(=O)O` [Senexin B dimaleate], the “hepatic tumor growth (liver weights)” value [2] was “strong inhibition of hepatic tumor growth”, the s.c. tumor growth (CT26 tumors) was “not statistically significant” and the “liver metastasis (liver weight)” value (CT26 cells [3]; administered two days prior to splenic inoculation) was “no effect on liver metastasis”. The “metastatic growth in the liver (liver weight)” value (CT26 cells [3]; both weeks after inoculation) was “equally efficient in suppressing metastatic growth in the liver”, the “liver metastasis (liver weight)” value (CT26 cells [3]; during the first week after inoculation) was “decreased the liver weights but this effect did not reach statistical significance” and the “metastatic growth in the liver (liver weight)” value (CT26 cells [3]; only the second week after inoculation) was “equally efficient in suppressing metastatic growth in the liver”. For the same compound, the toxicity [4] was “no apparent toxicity”, the mouse body weight ([4]; days 8 and 15 after surgery) was “no significant change in mouse body weight” and the “survival (Kaplan-Meyer)” value (CT26 cells [5]; combination: mice inoculated with shCDK8-1 cells and treated with Senexin B, 50 mg/kg gavage b.i.d.) was “increased the survival time even further”. The “survival (Kaplan-Meyer), efficiency of diet” value (CT26 cells [5]; low-dose diet (drug mixed into food) compared with high-dose diet) was “at least as efficient as the high-dose diet”, the “survival (Kaplan-Meyer)” value (CT26 cells [5]; mice inoculated with vector control cells, 50 mg/kg gavage b.i.d. in CD vehicle) was “prolonged the survival” and the average serum concentration ([6]; high-dose diet) was 206 nM. For the same compound, the average serum concentration ([6]; low-dose diet) was 58 nM.

In the case of `CN1CCN(C(=O)c2ccc3cc(CCNc4ncnc5ccc(C#N)cc45)ccc3c2)CC1` [Senexin B], the “in vitro growth inhibition of CT26 cells” value (CT26 colon cancer cells) is reported as “no significant growth inhibition”.
